Test results taken from paper PMC8933493, “Mechanism and biomass association of glucuronoyl esterase: an α/β hydrolase with potential in biomass conversion” (Nature Communications, 2022).

Experiments:
OtCE15A [1] = molecular target: T1, OtCE15A (Opitutus terrae, UniProt B1ZMF4); test: continuous coupled assay, K-URONIC kit; Arrhenius analysis of kcat; format: biochemical; conditions: 20 to 40 °C in 5 °C steps
T1 construct: gene Oter_0116; His6-tag; no CBM; E. coli BL21(DE3); IMAC and size exclusion; active-site Ser267, Arg268, Glu290, Asp356, His408

OtCE15A [2] = molecular target: T2, OtCE15A (Opitutus terrae, UniProt B1ZMF4, R268A); test: X-ray crystal structure after […] s soak in saturated BnzGlcA; format: binding; conditions: covalent; glucuronoyl acyl-enzyme intermediate formed from the soaked substrate; pH 6.5 crystals, 10% DMSO
T2 construct: gene Oter_0116; His6-tag; no CBM; E. coli BL21(DE3); IMAC and size exclusion; active-site Ser267, Arg268, Glu290, Asp356, His408

OtCE15A [3] = molecular target: T1, OtCE15A; test: continuous coupled assay, K-URONIC kit (Megazyme); format: biochemical; conditions: duplicate, at least 8 substrate concentrations
Text: continuous coupled assay, K-URONIC kit (Megazyme) on OtCE15A

T1 sequence (B1ZMF4 entry or part of it): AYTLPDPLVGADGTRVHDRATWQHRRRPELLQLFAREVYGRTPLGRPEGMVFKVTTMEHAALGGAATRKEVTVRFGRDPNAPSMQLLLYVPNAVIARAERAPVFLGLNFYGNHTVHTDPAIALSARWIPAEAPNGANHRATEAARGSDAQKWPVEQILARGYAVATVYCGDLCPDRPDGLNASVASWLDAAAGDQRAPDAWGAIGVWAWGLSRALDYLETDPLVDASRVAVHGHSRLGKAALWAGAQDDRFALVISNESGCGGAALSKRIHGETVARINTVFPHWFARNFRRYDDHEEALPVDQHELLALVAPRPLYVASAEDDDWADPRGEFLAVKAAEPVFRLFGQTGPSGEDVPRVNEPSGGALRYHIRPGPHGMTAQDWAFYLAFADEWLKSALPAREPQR
T2 sequence (B1ZMF4 entry or part of it R268A): as the sequence (B1ZMF4 entry or part of it) above, with R236A counted along it

| Structure (SMILES) | continuous coupled assay, K-URONIC kit; Arrhenius analysis of kcat (OtCE15A [1]) | X-ray crystal structure after 30 s soak in saturated BnzGlcA (OtCE15A [2]) | Km (OtCE15A [3]) [µM] |
| --- | --- | --- | --- |
| O=C(OCc1ccccc1)[C@H]1OC(O)[C@H](O)[C@@H](O)[C@@H]1O (stereo partly drawn) [BnzGlcA, benzyl GlcA] | small substrate benzyl GlcA (BnzGlcA) by determining kcat at different temperatures | after soaking with the BnzGlcA substrate clearly shows the formation of a CI |  |
| COC(=O)[C@H]1OC(O)[C@H](O)[C@@H](O)[C@@H]1O (stereo partly drawn) [MeGlcA, GlcA methyl ester] |  |  | 2770 ± 150 |
